Assay results: ChEMBL document CHEMBL3745631, “Discovery of highly potent and selective Bruton's tyrosine kinase inhibitors: Pyridazinone analogs with improved metabolic stability” (Bioorg Med Chem Lett, 2016)

Tests used:
[1] = molecular target: Serine/threonine-protein kinase PLK2 (Homo sapiens) (UniProt Q9NYY3); assay: Inhibition of PLK2 (unknown origin) at 1 uM
[2] = molecular target: Vascular endothelial growth factor receptor 3 (Homo sapiens) (UniProt P35916); assay: Inhibition of Flt4 (unknown origin) at 1 uM
[3] = molecular target: Bone morphogenetic protein receptor type-1A (Homo sapiens) (UniProt P36894); assay: Inhibition of BMPR1A (unknown origin) at 1 uM
[4] = molecular target: Serine/threonine-protein kinase Chk1 (Homo sapiens) (UniProt O14757); assay: Inhibition of CHK1 (unknown origin) at 1 uM
[5] = Oral bioavailability in mouse at 5 mg/kg by LC-MS/MS analysis; assay type: ADME, organism-based; settings: in vivo
[6] = molecular target: Cyclin-dependent kinase 5/CDK5 activator 1 (Homo sapiens) (UniProt Q00535+Q15078); assay: Inhibition of CDK5/p25 (unknown origin) at 1 uM; assay type: protein-complex assay
[7] = molecular target: SRSF protein kinase 1 (Homo sapiens) (UniProt Q96SB4); assay: Inhibition of SRPK1 (unknown origin) at 1 uM
[8] = molecular target: Aurora kinase B (Homo sapiens) (UniProt Q96GD4); assay: Inhibition of AuroraB (unknown origin) at 1 uM
[9] = molecular target: Ribosomal protein S6 kinase alpha-5 (Homo sapiens) (UniProt O75582); assay: Inhibition of MSK1 (unknown origin) at 1 uM
[10] = molecular target: Serine/threonine-protein kinase NLK (Homo sapiens) (UniProt Q9UBE8); assay: Inhibition of NLK (unknown origin) at 1 uM
[11] = molecular target: Tyrosine-protein kinase Mer (Homo sapiens) (UniProt Q12866); assay: Inhibition of Mer (unknown origin) at 1 uM
[12] = molecular target: Serine/threonine-protein kinase Nek9 (Homo sapiens) (UniProt Q8TD19); assay: Inhibition of NEK9 (unknown origin) at 1 uM
[13] = molecular target: Calcium/calmodulin-dependent protein kinase type IV (Homo sapiens) (UniProt Q16566); assay: Inhibition of CamK4(unknown origin) at 1 uM
[14] = molecular target: Serine/threonine-protein kinase MRCK alpha (Homo sapiens) (UniProt Q5VT25); assay: Inhibition of MRCK alpha (unknown origin) at 1 uM
Cynomolgus monkey = assay: Clearance in cynomolgus monkey at 1 mg/kg, iv by LC-MS/MS analysis; assay type: ADME, organism-based, Macaca fascicularis; settings: in vivo
[15] = molecular target: BDNF/NT-3 growth factors receptor (Homo sapiens) (UniProt Q16620); assay: Inhibition of TrkB (unknown origin) at 1 uM
[16] = molecular target: Mitogen-activated protein kinase 14 (Homo sapiens) (UniProt Q16539); assay: Inhibition of p38alpha (unknown origin) at 1 uM
Salmonella typhimurium [17] = assay: Genotoxicity in Salmonella typhimurium TA98 by Ames test in presence of S9 fraction; assay type: toxicity, organism-based; settings: salmonella enterica subsp. enterica serovar typhimurium
[18] = molecular target: Interleukin-1 receptor-associated kinase 4 (Homo sapiens) (UniProt Q9NWZ3); assay: Inhibition of IRAK4 (unknown origin) at 1 uM
[19] = molecular target: Tyrosine-protein kinase ITK/TSK (Homo sapiens) (UniProt Q08881); assay: Inhibition of ITK (unknown origin) at 1 uM
Salmonella typhimurium [20] = assay: Genotoxicity in Salmonella typhimurium TA98 by Ames test in absence of S9 fraction; assay type: toxicity, organism-based; settings: salmonella enterica subsp. enterica serovar typhimurium
[21] = molecular target: Serine/threonine-protein kinase DCLK2 (Homo sapiens) (UniProt Q8N568); assay: Inhibition of DCAMKL2 (unknown origin) at 1 uM
[22] = molecular target: G protein-coupled receptor kinase 3 (Homo sapiens) (UniProt P35626); assay: Inhibition of GRK3 (unknown origin) at 1 uM
[23] = molecular target: Protein-tyrosine kinase 2-beta (Homo sapiens) (UniProt Q14289); assay: Inhibition of FAK2 (unknown origin) at 1 uM
[24] = molecular target: Mitogen-activated protein kinase kinase kinase 5 (Homo sapiens) (UniProt Q99683); assay: Inhibition of ASK1 (unknown origin) at 1 uM
[25] = molecular target: Serine/threonine-protein kinase 17A (Homo sapiens) (UniProt Q9UEE5); assay: Inhibition of DRAK1 (unknown origin) at 1 uM
[26] = molecular target: Serine/threonine-protein kinase Sgk1 (Homo sapiens) (UniProt O00141); assay: Inhibition of SGK1 (unknown origin) at 1 uM
[27] = molecular target: Ribosomal protein S6 kinase alpha-2 (Homo sapiens) (UniProt Q15349); assay: Inhibition of Rsk3 (unknown origin) at 1 uM
[28] = molecular target: Mitogen-activated protein kinase kinase kinase kinase 4 (Homo sapiens) (UniProt O95819); assay: Inhibition of MAP4K4 (unknown origin) at 1 uM
[29] = molecular target: Interleukin-1 receptor-associated kinase 1 (Homo sapiens) (UniProt P51617); assay: Inhibition of IRAK1 (unknown origin) at 1 uM
[30] = molecular target: Insulin receptor (Homo sapiens) (UniProt P06213); assay: Inhibition of InsR (unknown origin) at 1 uM
[31] = molecular target: Fibroblast growth factor receptor 3 (Homo sapiens) (UniProt P22607); assay: Inhibition of FGFR3 (unknown origin) at 1 uM
[32] = molecular target: Cyclin-dependent kinase 7/ cyclin H (Homo sapiens) (UniProt P51946+P50613); assay: Inhibition of CDK7/cyclinH (unknown origin) at 1 uM; assay type: protein-complex assay
[33] = molecular target: Serine/threonine-protein kinase Sgk2 (Homo sapiens) (UniProt Q9HBY8); assay: Inhibition of SGK2 (unknown origin) at 1 uM
[34] = system: RAF proto-oncogene serine/threonine-protein kinase (Homo sapiens), P04049 [Y340D,Y341D]; assay: Inhibition of RAF1 Y340D, Y341D mutant (unknown origin) at 1 uM
[35] = molecular target: Tyrosine-protein kinase Yes (Homo sapiens) (UniProt P07947); assay: Inhibition of Yes (unknown origin) at 1 uM
[36] = molecular target: CDK9/cyclin T1 (Homo sapiens) (UniProt O60563+P50750); assay: Inhibition of CDK9/cyclinT1 (unknown origin) at 1 uM; assay type: protein-complex assay
Salmonella typhimurium [37] = assay: Genotoxicity in Salmonella typhimurium TA100 by Ames test in absence of S9 fraction; assay type: toxicity, organism-based; settings: salmonella enterica subsp. enterica serovar typhimurium
[38] = molecular target: Homeodomain-interacting protein kinase 2 (Homo sapiens) (UniProt Q9H2X6); assay: Inhibition of HIPK2 (unknown origin) at 1 uM
[39] = molecular target: Phosphatidylinositol 4,5-bisphosphate 3-kinase catalytic subunit alpha isoform (Homo sapiens) (UniProt P42336); assay: Inhibition of PI3KA (unknown origin) at 1 uM
[40] = molecular target: Beta-adrenergic receptor kinase 1 (Homo sapiens) (UniProt P25098); assay: Inhibition of GRK2 (unknown origin) at 1 uM
[41] = molecular target: Proto-oncogene tyrosine-protein kinase receptor Ret (Homo sapiens) (UniProt P07949); assay: Inhibition of Ret (unknown origin) at 1 uM
[42] = molecular target: Serine/threonine-protein kinase BRSK1 (Homo sapiens) (UniProt Q8TDC3); assay: Inhibition of BrSK1 (unknown origin) at 1 uM
[43] = molecular target: Serine/threonine-protein kinase 3 (Homo sapiens) (UniProt Q13188); assay: Inhibition of MST2 (unknown origin) at 1 uM

Sequence of SRSF protein kinase 1 (Homo sapiens) (Q96SB4 whole entry): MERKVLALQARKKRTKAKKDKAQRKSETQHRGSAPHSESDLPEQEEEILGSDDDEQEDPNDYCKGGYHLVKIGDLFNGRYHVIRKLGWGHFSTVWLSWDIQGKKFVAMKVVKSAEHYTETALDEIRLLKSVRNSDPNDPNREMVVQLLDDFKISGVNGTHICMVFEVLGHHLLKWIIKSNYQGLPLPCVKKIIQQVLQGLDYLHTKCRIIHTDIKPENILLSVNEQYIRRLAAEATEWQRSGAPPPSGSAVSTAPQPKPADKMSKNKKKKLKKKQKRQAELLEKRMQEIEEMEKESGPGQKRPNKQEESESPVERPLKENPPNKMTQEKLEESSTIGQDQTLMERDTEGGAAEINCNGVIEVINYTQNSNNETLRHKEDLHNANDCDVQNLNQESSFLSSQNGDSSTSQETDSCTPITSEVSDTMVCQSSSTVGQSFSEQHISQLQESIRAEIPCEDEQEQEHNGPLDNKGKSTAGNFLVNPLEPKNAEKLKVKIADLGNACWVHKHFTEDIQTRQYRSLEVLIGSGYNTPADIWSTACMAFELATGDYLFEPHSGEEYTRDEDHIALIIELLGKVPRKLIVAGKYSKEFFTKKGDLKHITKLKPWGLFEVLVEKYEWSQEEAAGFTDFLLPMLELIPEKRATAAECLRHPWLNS
Sequence of Mitogen-activated protein kinase kinase kinase kinase 4 (Homo sapiens) (O95819 2-1239 limits assumed): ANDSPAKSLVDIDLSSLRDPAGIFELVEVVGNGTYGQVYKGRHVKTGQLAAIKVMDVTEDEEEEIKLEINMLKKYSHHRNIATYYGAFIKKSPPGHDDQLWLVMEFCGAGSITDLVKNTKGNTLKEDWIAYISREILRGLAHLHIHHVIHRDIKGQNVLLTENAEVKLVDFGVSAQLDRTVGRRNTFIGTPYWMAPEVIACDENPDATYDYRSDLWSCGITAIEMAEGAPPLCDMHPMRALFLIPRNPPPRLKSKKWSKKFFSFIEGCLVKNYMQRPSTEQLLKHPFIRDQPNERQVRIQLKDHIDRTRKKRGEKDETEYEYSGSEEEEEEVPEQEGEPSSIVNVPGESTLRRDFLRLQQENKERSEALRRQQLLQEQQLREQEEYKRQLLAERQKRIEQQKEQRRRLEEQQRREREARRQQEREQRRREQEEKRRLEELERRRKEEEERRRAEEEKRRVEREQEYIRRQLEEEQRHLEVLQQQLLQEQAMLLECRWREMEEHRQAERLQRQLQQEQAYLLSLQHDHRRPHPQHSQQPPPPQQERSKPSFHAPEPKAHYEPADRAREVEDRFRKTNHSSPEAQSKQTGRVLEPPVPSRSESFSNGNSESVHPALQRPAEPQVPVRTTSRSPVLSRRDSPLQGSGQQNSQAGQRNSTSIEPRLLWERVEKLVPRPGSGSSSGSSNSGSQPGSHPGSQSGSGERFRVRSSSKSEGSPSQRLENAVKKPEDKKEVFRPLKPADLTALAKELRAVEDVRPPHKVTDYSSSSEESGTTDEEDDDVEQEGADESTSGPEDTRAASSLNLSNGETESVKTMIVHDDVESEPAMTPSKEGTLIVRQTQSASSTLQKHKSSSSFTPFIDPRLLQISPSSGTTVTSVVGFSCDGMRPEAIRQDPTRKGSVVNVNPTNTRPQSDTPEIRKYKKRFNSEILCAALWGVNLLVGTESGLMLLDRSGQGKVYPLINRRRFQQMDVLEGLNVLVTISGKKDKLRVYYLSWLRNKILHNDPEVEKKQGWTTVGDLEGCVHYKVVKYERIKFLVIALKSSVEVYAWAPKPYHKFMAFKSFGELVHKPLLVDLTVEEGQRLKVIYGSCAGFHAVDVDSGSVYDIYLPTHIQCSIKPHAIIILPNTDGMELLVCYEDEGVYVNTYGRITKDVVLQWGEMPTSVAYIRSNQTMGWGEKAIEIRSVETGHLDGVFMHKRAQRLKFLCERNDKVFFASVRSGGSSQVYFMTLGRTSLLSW
Sequence of Serine/threonine-protein kinase DCLK2 (Homo sapiens) (Q8N568 whole entry): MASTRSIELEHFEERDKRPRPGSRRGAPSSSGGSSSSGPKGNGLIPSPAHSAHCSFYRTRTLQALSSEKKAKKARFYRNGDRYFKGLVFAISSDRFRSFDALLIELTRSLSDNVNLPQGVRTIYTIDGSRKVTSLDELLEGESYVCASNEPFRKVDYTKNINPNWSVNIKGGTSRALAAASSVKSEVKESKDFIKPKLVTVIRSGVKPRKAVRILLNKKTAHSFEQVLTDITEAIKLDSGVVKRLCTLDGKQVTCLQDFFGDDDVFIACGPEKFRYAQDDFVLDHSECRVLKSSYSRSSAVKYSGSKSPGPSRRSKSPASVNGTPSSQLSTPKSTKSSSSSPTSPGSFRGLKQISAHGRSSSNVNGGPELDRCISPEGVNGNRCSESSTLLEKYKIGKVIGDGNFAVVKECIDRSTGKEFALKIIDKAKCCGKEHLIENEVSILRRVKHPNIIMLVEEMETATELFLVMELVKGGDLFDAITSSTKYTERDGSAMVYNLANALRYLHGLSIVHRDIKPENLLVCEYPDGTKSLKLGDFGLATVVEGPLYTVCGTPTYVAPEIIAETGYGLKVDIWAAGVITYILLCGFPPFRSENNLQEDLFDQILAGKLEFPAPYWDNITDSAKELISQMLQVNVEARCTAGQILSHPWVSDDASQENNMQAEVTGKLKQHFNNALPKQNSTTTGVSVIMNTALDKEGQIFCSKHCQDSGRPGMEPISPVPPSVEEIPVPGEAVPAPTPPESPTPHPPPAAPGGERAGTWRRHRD
Sequence of Serine/threonine-protein kinase Nek9 (Homo sapiens) (Q8TD19 whole entry): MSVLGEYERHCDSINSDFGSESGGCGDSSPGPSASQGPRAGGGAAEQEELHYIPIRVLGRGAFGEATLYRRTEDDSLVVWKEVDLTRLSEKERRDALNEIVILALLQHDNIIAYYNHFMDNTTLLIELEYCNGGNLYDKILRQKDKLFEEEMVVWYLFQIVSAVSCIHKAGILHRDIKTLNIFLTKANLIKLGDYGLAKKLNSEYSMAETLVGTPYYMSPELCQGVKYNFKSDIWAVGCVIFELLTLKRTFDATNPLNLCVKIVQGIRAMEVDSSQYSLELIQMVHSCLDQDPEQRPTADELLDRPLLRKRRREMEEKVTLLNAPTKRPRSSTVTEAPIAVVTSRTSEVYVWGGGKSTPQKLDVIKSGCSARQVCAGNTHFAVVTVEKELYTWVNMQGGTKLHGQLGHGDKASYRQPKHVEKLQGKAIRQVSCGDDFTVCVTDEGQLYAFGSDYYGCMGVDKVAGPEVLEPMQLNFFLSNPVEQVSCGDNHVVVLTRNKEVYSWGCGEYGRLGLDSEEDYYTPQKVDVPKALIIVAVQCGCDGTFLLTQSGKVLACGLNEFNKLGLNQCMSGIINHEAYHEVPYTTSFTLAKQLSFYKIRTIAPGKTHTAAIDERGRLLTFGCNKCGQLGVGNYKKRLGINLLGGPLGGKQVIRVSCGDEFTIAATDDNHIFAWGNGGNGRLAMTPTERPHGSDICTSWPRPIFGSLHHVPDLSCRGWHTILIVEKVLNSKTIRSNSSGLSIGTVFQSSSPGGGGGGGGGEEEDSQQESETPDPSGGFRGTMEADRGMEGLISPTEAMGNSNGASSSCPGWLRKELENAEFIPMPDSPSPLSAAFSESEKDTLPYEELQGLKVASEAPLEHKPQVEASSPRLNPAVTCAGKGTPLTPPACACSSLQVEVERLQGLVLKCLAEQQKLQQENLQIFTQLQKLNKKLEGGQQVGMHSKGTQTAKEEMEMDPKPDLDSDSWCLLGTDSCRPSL
Sequence of Ribosomal protein S6 kinase alpha-5 (Homo sapiens) (O75582 whole entry, looked up): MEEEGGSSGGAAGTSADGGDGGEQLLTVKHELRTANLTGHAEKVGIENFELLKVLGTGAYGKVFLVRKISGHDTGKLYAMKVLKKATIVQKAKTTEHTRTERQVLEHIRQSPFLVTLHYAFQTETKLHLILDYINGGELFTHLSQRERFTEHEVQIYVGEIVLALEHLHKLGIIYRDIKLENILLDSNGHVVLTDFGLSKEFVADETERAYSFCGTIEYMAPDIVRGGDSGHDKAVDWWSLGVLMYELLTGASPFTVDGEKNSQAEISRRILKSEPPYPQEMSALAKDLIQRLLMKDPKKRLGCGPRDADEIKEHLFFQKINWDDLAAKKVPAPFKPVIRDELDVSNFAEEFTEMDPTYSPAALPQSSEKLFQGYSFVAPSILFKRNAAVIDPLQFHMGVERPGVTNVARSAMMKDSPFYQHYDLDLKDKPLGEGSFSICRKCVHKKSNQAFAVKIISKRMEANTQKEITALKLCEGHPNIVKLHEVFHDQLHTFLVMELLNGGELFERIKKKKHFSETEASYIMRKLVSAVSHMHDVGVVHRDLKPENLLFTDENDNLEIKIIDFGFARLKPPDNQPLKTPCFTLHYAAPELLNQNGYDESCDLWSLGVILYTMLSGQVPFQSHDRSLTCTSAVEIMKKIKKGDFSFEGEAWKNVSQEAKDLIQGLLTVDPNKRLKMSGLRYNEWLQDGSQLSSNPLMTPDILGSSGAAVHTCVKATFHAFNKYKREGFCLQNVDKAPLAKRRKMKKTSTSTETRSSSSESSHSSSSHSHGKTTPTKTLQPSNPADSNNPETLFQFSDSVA
Sequence of Tyrosine-protein kinase Yes (Homo sapiens) (P07947 2-543 limits assumed): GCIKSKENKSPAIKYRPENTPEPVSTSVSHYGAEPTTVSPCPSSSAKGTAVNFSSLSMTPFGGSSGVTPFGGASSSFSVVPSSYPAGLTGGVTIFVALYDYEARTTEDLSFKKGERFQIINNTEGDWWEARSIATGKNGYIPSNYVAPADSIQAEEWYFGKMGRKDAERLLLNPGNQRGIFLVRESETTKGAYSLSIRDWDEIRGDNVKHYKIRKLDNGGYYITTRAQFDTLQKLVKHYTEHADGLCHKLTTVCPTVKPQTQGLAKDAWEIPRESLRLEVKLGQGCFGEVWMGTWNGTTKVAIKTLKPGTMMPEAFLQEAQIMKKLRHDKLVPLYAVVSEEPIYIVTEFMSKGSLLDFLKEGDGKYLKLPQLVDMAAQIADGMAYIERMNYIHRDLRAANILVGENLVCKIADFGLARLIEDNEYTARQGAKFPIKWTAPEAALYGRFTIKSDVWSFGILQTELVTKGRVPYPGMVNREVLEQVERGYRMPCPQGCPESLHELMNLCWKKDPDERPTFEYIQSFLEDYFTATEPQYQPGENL

inhibition [1]: 5.8%
inhibition [2]: 2.7%
inhibition [3]: -4.5%
inhibition [4]: 4.8%
bioavailability [5]: 34%
inhibition [6]: 2.4%
inhibition [7]: 0.6%
inhibition [8]: -0.4%
inhibition [9]: -6.5%
inhibition [10]: -4.8%
inhibition [11]: 3%
inhibition [13]: 2.4%
inhibition [14]: -4.5%
clearance (Cynomolgus monkey): 0.24 L/h/kg
inhibition [15]: -3.6%
inhibition [16]: 1%
inhibition [18]: 2%
inhibition [19]: 38.3%
inhibition [21]: -1.2%
inhibition [22]: 0.7%
inhibition [23]: 4%
inhibition [24]: -2.1%
inhibition [25]: 7.6%
inhibition [26]: 4.6%
inhibition [27]: -0.6%
inhibition [28]: 3%
inhibition [29]: -2.2%
inhibition [30]: 13.8%
inhibition [31]: 1.8%
inhibition [32]: -7.7%
inhibition [33]: -2.3%
inhibition [34]: 5.5%
inhibition [35]: 20.8%
inhibition [36]: 1%
inhibition [38]: 4.5%
inhibition [39]: 5.7%
inhibition [40]: 0.8%
inhibition [41]: 14.9%
inhibition [42]: 0.8%
inhibition [43]: -4.1%
SMILES: Cc1c(-c2cc(Nc3cc4n(n3)CCN(C)C4)c(=O)[nH]n2)ccc(F)c1NC(=O)c1cc2ccccc2s1
inhibition [12]: -7.6%
Activity (Salmonella typhimurium [17]): Non-toxic
Activity (Salmonella typhimurium [20]): Non-toxic
Activity (Salmonella typhimurium [37]): Non-toxic
